Results published in patent US20050267133A1, “Pyrazolopyrimidines as kinase inhibitors” (priority 2002, published 2005).
Structures can show the parent of a compound that is named as a salt.

Biological target: GSK-3β (Homo sapiens, UniProt P49841)
Test: GSK3 scintillation proximity assay (SPA) kinase assay
Type: biochemical
Settings: 20 nM kinase, 2.5 uM ATP, biotinylated glycogen synthase peptide, 40 minutes at room temperature; -log IC50 in Molar; read-out: GSK-3 pIC50 (converted)
Source text: The phosphorylated biotinylated peptide is then captured onto streptavidin coated scintillation proximity assay (SPA) beads from Amersham Technology, where the signal from the ^33P is amplified via the scintillant contained in the beads.
GSK-3β is commercially available or may be cloned and expressed in E. coli using standard techniques to produce soluble, active protein. The production of active protein involves purification in two steps using Metal Chelate and Ion Exchange Chromatography. Protein eluting from Ion Exchange provides >90% pure product that may then be concentrated for use in high throughput screening.
The kinase was assayed at a concentration of 20 nM final in 100 mM HEPES, pH 7.2 containing 10 mM magnesium chloride, 0.1 mg/mL bovine serum albumin, 1 mM dithiothreitol, 0.3 mg/mL heparin, 2.8 uM peptide substrate, 2.5 uM ATP, and 0.2 uCi/well [[…]-^33P]-ATP. After 40 minutes incubation at room temperature, the reaction was stopped by addition of 100 mM EDTA and […] in 100 mM HEPES, pH7.2 followed by an additional solution of diluted Streptavidin coated SPA beads in PBS, pH 7.2 to give a final concentration of 0.25 mg of beads per assay well in a 96-well microtiter plate.
10 mM stock solutions of the compounds of the invention in 100% DMSO are generated as a first step in the screening process. The second step involves the creation of dose response plates where these compounds are diluted 10-fold in 100% DMSO to 1 mM concentrations and subsequently serially diluted 3-fold in 100% DMSO across the plate by automated liquid handling such that the final top concentration of inhibitor is 0.033 mM in the 30 uL kinase assay. The third step involves the creation of the assay plates. This is achieved by transferring 1 uL of the compounds to assay plates by automated liquid handling. The fourth step is to perform the assay as described and count the resulting plates in the Packard TopCount NXT microplate scintillation and luminescence counter.
The final step is data acquisition and analysis where IC50 values are generated for each compound by normalizing curve data to the equation 100*(U1−C2)/(C1−C2) (where U1 is the cpm value, C2 is the background, and C1 is the maximum number of counts), then fitting the normalized data to the equation y=Vmax*(1−(x/(K+x))). The IC50 values were converted to pIC50 values, i.e., −log IC50 in Molar concentration. The data is expressed below in Table 1.

Chain of GSK-3β (P49841 whole entry, species assumed): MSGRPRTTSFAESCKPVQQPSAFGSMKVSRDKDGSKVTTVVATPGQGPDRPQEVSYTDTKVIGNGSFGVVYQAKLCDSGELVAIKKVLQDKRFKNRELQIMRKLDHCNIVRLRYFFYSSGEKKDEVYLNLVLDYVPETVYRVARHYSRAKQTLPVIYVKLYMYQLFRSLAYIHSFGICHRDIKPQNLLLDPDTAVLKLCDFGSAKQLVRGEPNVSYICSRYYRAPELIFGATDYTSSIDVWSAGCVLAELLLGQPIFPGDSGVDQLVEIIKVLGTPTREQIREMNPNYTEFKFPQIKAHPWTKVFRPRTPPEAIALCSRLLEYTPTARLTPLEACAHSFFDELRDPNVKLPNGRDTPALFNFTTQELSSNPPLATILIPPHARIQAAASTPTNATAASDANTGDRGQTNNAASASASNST

| SMILES | IC50 [nM] |
| --- | --- |
| CS(=O)(=O)CCNC(=O)c1cccc(/C=N/Nc2ncnc3c2cnn3-c2ccccc2)c1 [Example 41] | 100 to 1000 |
| Cc1ccc(/C=N/Nc2ncnc3c2cnn3-c2ccccc2)o1 [Example 59, 5-Methyl-2-furaldehyde [1-(phenyl)-1H-pyrazolo[3,4-d]pyrimidin-4-yl]hydrazone] | 100 to 1000 |
| O=S(=O)(NCCN1CCOCC1)c1ccc(/C=N/Nc2ncnc3c2cnn3-c2ccccc2)cc1 [Example 21, N-(2-morpholin-4-ylethyl)-4-{(E)-[(1-phenyl-1H-pyrazolo[3,4-d]pyrimidin-4-yl)hydrazono]methyl}benzenesulfonamide] | < 100 |
| CN(C)CCOc1ccc(/C=N/Nc2ncnc3c2cnn3-c2ccccc2)cn1 [Example 18, 6-[2-(dimethylamino)ethoxy]nicotinaldehyde (1-phenyl-1H-pyrazolo[3,4-d]pyrimidin-4-yl)hydrazone] | 100 to 1000 |
| O=C(NCc1ccccn1)c1ccc(/C=N/Nc2ncnc3c2cnn3-c2ccccc2)cc1 [Example 28, 4-{(E)-[(1-phenyl-1H-pyrazolo[3,4-d]pyrimidin-4-yl)hydrazono]methyl}-N-(pyridin-2-ylmethyl)benzamide] | 100 to 1000 |
| C(=N\Nc1ncnc2c1cnn2-c1ccccc1)/c1cnc2ccccc2c1 [Example 4, Quinoline-3-carbaldehyde (1-phenyl-1H-pyrazolo[3,4-d]pyrimidin-4-yl)hydrazone] | 100 to 1000 |
| C(=N\Nc1ncnc2c1cnn2-c1ccccc1)/c1ccnc2ccccc12 [Example 62, 4-Quinolinecarboxaldehyde [1-(phenyl)-1H-pyrazolo[3,4-d]pyrimidin-4-yl]hydrazone] | 1000 to 10000 |
| COc1ccc(/C=N/Nc2ncnc3c2cnn3-c2ccccc2)cn1 [Example 17, 6-methoxynicotinaldehyde (1-phenyl-1H-pyrazolo[3,4-d]pyrimidin-4-yl)hydrazone] | 100 to 1000 |
| CN(C)CCNS(=O)(=O)c1ccc(/C=N/Nc2ncnc3c2cnn3-c2ccccc2)cc1 [Example 22, N[2-(dimethylamino)ethyl]-4-[{(E)[(1-phenyl-1H-pyrazolo[3,4-d]pyrimidin-4-yl)hydrazono]methyl}benzenesulfonamide hydrochloride] | < 100 |
| O=C(NCCN1CCOCC1)c1cccc(/C=N/Nc2ncnc3c2cnn3-c2ccccc2)c1 [Example 42, N-(2-morpholin-4-ylethyl)-3-{(E)-[(1-phenyl-1H-pyrazolo[3,4-d]pyrimidin-4-yl)hydrazono]methyl}benzamide] | 100 to 1000 |
| COC(=O)c1cccc(/C=N/Nc2ncnc3c2cnn3-c2ccccc2)c1 [Example 3, Methyl 3-{(E)-[(1-phenyl-1H-pyrazolo[3,4-d]pyrimidin-4-yl)hydrazono]methyl}benzoate] | 100 to 1000 |
| CN(C)c1ccc(/C=N/Nc2ncnc3c2cnn3-c2ccccc2)cn1 [Example 13, 6-(dimethylamino)nicotinaldehyde (1-phenyl-1H-pyrazolo[3,4-d]pyrimidin-4-yl)hydrazone] | 1000 to 10000 |

Continued, values first:

| IC50 [nM] | SMILES |
| --- | --- |
| 100 to 1000 | C(=N\Nc1ncnc2c1cnn2-c1ccccc1)/C1CCNCC1 [Example 9, Piperidine-4-carbaldehyde (1-phenyl-1H-pyrazolo[3,4-d]pyrimidin-4-yl)hydrazone trifluoroacetate] |
| 100 to 1000 | Clc1cc(/C=N/Nc2ncnc3c2cnn3-c2ccccc2)ccn1 [Example 14, 2-chloroisonicotinaldehyde (1-phenyl-1H-pyrazolo[3,4-d]pyrimidin-4-yl)hydrazone] |
| < 100 | CC(=O)Nc1ccc(/C=N/Nc2ncnc3c2cnn3-c2ccccc2)cn1 [Example 10, N-(5-{(E)-[2-(1-phenyl-1H-pyrazolo[3,4-d]pyrimidin-4-yl)hydrazono]methyl}pyridin-2-yl)acetamide] |
| 1000 to 10000 | CCc1ccc(/C=N/Nc2ncnc3c2cnn3-c2ccccc2)o1 [Example 57, 5-Ethyl-2-furaldehyde [1-(phenyl)-1H-pyrazolo[3,4-d]pyrimidin-4-yl]hydrazone] |
| < 100 | O=S(=O)(NCCCN1CCCC1)c1ccc(/C=N/Nc2ncnc3c2cnn3-c2ccccc2)cc1 [Example 23, 4-{(E)-[(1-phenyl-1H-pyrazolo[3,4-d]pyrimidin-4-yl)hydrazono]methyl}-N-(3-pyrrolidin-1-ylpropyl)benzenesulfonamide] |
| 100 to 1000 | Nc1ccc(/C=N/Nc2ncnc3c2cnn3-c2ccccc2)cn1 [Example 12, 6-aminonicotinaldehyde (1-phenyl-1H-pyrazolo[3,4-d]pyrimidin-4-yl)hydrazone trifluoroacetate] |
| < 100 | CN(C)CCNc1ccc(/C=N/Nc2ncnc3c2cnn3-c2ccccc2)cn1 [Example 19, 6-{[2-(dimethylamino)ethyl]amino}nicotinaldehyde (1-phenyl-1H-pyrazolo[3,4-d]pyrimidin-4-yl)hydrazone hydrochloride] |
| 100 to 1000 | COc1cc(/C=N/Nc2ncnc3c2cnn3-c2ccccc2)ccn1 [Example 15, 2-methoxyisonicotinaldehyde (1-phenyl-1H-pyrazolo[3,4-d]pyrimidin-4-yl)hydrazone] |
| < 100 | CN(C)CCNC(=O)c1cccc(/C=N/Nc2ncnc3c2cnn3-c2ccccc2)c1 [Example 40, N-[2-(dimethylamino)ethyl]-3-{(E)-[(1-phenyl-1H-pyrazolo[3,4-d]pyrimidin-4-yl)hydrazono]methyl}benzamide] |
| 100 to 1000 | CC(C)(C)OC(=O)N1CCC(/C=N/Nc2ncnc3c2cnn3-c2ccccc2)CC1 [Example 8, tert-butyl 4-{(E)-[(1-phenyl-1H-pyrazolo[3,4-d]pyrimidin-4-yl)hydrazono]methyl}piperidine-1-carboxylate] |
| < 100 | Clc1ccc(/C=N/Nc2ncnc3c2cnn3-c2ccccc2)cn1 [Example 16, 6-chloronicotinaldehyde (1-phenyl-1H-pyrazolo[3,4-d]pyrimidin-4-yl)hydrazone] |
